In US20090270259A1, “Novel Agrochemical Formulations” (priority 2005, published 2009):

Assay: Determination of the active substance content inside the film (UV-vis in THF, with and without ethanol wash)
Type: physicochemical
Conditions: Ecoflex film of Example 1, washed in 15 ml ethanol, UV-vis intensity ratio at 244 nm and 290 nm
Method: For applications for the controlled release of active substance, it is useful to determine the active substance content enclosed in the film more specifically.
For this, 27.3 mg of a film charged with chlorpyrifos and prepared by the procedure described above were dissolved in 15 ml of tetrahydrofuran (THF), which is a good solvent both for the active substance and also for the polymer. 0.5 milliliters of this solution were further diluted to a volume of 20 ml with THF; a UV-vis spectrum was recorded for the dilute solution.
In a comparison experiment, the film was firstly washed in 15 ml of ethanol and dried before being analyzed as described above in a solution of THF by means of UV-vis spectroscopy.
Reference spectra were measured a series of THF solutions which, as well as 33.5 mg/l of Ecoflex® comprising Ecoflex® pellets, also comprised chlorpyrifos in concentrations of from 0 to 24 mg/l. A suitable comparison parameter which clearly reflects the chlorpyrifos content is the intensity ratio I2/I1 of characteristic peaks in the UV-vis spectrum at the wavelengths 244 nm and 290 nm.

Compound: CCOP(=S)(OCC)Oc1nc(Cl)c(Cl)cc1Cl [chlorpyrifos]
- chlorpyrifos used in the film preparation that remains in the film after washing with ethanol (enclosed fraction, released in a delayed manner) (dried, dissolved in THF): 24%
- active substance washed away with ethanol (fraction on the film surface, directly available): 76%
